“And” between values parts separate entries of the source, which are not always exact repeats. Equal values may be shown once. Read-outs that look alike come from different tables or passages of the source.
Target: T1, NgTet1 (Naegleria gruberi, UniProt D2W6T1)
T1 construct: His6-tagged full-length Naegleria gruberi NgTet1 (321 a. a.) protein with a thrombin cleavage site; made in house; host or cells: E. coli BL21(DE3)
T1 sequence (D2W6T1 1-321): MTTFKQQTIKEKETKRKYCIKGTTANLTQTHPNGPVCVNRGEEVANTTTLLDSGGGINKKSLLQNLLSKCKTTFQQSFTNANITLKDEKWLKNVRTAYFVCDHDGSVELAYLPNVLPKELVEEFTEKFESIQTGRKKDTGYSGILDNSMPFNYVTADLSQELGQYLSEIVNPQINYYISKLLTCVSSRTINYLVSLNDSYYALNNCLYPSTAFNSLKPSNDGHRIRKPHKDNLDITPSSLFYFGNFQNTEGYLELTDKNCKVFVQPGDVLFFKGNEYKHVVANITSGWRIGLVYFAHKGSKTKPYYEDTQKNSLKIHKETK
Assay: biochemical
Conditions: for normalised activity: NgTet1, NMR, 2 independent replicates; for IC50: 5 μM NgTet1, 50 μM 2OG; for normalised activity, %: NMR
Procedure: Activity was normalised against reactions containing vehicle (DMSO). […] AS data shown as the mean of three experimental replicates (n = 3; mean ± SD); ^1H NMR data plotted from two independent replicates (n = 2); tabulated data reported as the mean of two and three independent replicates for ^1H NMR and AS, respectively (n = 2–3, SD reported for n = 3). N. d.: not determined; AS: AlphaScreen.
All ^1H NMR spectra were recorded at 25 °C using D2O as a reference for internal deuterium lock on a Bruker Avance III 700 MHz equipped with an inverse TCI cryoprobe in 3 or 5 mm diameter tubes with a total sample volume of 160 or 565 μL, respectively. The water signal was reduced using Perfect Echo excitation sculpting suppression. Chemical shifts are reported in ppm relative to D2O (δH = 4.70 ppm).
NgTet1 was pre-incubated with inhibitor dilution series in DMSO-d6 at room temperature for 10 min (50 mM Tris-d11 [pH 7.5], 2% v/v DMSO-d6). Reactions were initiated by the addition of appropriate cofactors and DNA. […] The reactions were quenched by the addition of 9 mM NOG and 9 mM ZnCl2 in 90 mM Tris-d11 [pH 7.5] (20 μL) within the enzyme linear activity window (determined in Figure. S10). Samples were transferred to NMR tubes and subjected to ^1H NMR analysis. Data were processed as described above. Inhibition data was normalised to reactions containing vehicle only (1% v/v DMSO-d6) and fitted using “log(inhibitor) vs. response - Variable slope (four parameters)” non-linear regression model on GraphPad Prism 5.
Activity was normalised against reactions containing vehicle only (100% activity). Data is shown as the mean of 2 independent replicates (n = 2; […]
Fig. S10 Determination of linear NgTet1 enzymatic activity windows for inhibitor characterisation. a 1H NMR succinate detection time courses with no DNA, 5HC DNA (double- […]
complementary 5'-ACC AC5mC GGT GGT-3'). b AlphaScreen 5hmC detection time course using […]
courses shown. 1H NMR reaction conditions: 5 μM NgTet1, 2 mM sodium L-ascorbate, 100 μM […]
v/v D2O. DNA was added to a final concentration of 20 μM of double-stranded DNA. […]

5HC DNA: non-methylated DNA of the same sequence, 5'-ACC ACC GGT GGT-3', non-substrate (DNA ACCACCGGTGGT; DNA, backbone not given here)
uncoupled 2OG decarboxylase activity relative to control (1.2 equivalents (6.17 μM) of ligand, no 5mC DNA substrate): 188% | normalised activity (-Log[inhibitor] (M) 3.77815): 173.555% and 199.834% | normalised activity (-Log[inhibitor] (M) 4.25527): 239.054% and 238.734% | normalised activity (-Log[inhibitor] (M) 4.73239): 235.651% and 234.615% | normalised activity (-Log[inhibitor] (M) 5.20951): 188.852% and 186.764% | normalised activity (-Log[inhibitor] (M) 5.68664): 131.036% and 130.504% | normalised activity (-Log[inhibitor] (M) 6.16376): 99.9166% and 102.373% | normalised activity (-Log[inhibitor] (M) 6.64088): 99.5022% and 101.543% | normalised activity (-Log[inhibitor] (M) 7.118): 100.648% and 101.556% | normalised activity (-Log[inhibitor] (M) 7.59512): 99.7851% and 102.052% | normalised activity (-Log[inhibitor] (M) 8.07224): 101.874% and 100.284%

O=C(O)CNC(=O)C(=O)O [NOG, N-oxalylglycine]
potency reduced in the presence of non-substrate 5HC DNA (1H NMR, uncoupled 2OG turnover): 5 fold | IC50 (2OG decarboxylation with 20 µM 5HC DNA, read-out: IC50, 5HC DNA, NMR): 23.4 µM | IC50 (2OG decarboxylation with 20 µM 5mC DNA, read-out: IC50, 5mC DNA, NMR): 4.9 µM | normalised activity, % (5HC DNA, -Log[inhibitor] (M) 3): 9.08% and 0% | normalised activity, % (5HC DNA, -Log[inhibitor] (M) 3.5): 14.96% and 8.89% | normalised activity, % (5HC DNA, -Log[inhibitor] (M) 4): 27.44% and 19.98% | normalised activity, % (5HC DNA, -Log[inhibitor] (M) 4.5): 46.19% and 37.58% | normalised activity, % (5HC DNA, -Log[inhibitor] (M) 5): 68.86% and 59.35% | normalised activity, % (5HC DNA, -Log[inhibitor] (M) 5.5): 85.6% and 77.94% | normalised activity, % (5HC DNA, -Log[inhibitor] (M) 6): 94.01% and 91.73% | normalised activity, % (5HC DNA, -Log[inhibitor] (M) 6.5): 98.78% and 94.75% | normalised activity, % (5HC DNA, -Log[inhibitor] (M) 7): 98.78% and 99.12% | normalised activity, % (5HC DNA, -Log[inhibitor] (M) 7.5): 97.21% and 98.4% | potency improved relative to AS assay (5mC DNA substrate-saturating conditions, 1H NMR): 40 fold | normalised activity, % (5mC DNA, -Log[inhibitor] (M) 2.47712): 3.86% and 2.962% | normalised activity, % (5mC DNA, -Log[inhibitor] (M) 2.95424): 3.763% and 4.321% | normalised activity, % (5mC DNA, -Log[inhibitor] (M) 3.43136): 5.679% and 6.122% | normalised activity, % (5mC DNA, -Log[inhibitor] (M) 3.90849): 9.059% and 9.958% | normalised activity, % (5mC DNA, -Log[inhibitor] (M) 4.38561): 18.3792% and 18.5451% | normalised activity, % (5mC DNA, -Log[inhibitor] (M) 4.86273): 32.2896% and 33.1008% | normalised activity, % (5mC DNA, -Log[inhibitor] (M) 5.33985): 53.2739% and 54.7766% | normalised activity, % (5mC DNA, -Log[inhibitor] (M) 5.81697): 75.7036% and 73.0834% | normalised activity, % (5mC DNA, -Log[inhibitor] (M) 6.29409): 86.8413% and 87.2847% | normalised activity, % (5mC DNA, -Log[inhibitor] (M) 6.77): 92.8024% and 96.8118% | normalised activity, % (5mC DNA, -Log[inhibitor] (M) 7.25): 100.282% and 100.776% | normalised activity, % (5mC DNA, -Log[inhibitor] (M) 7.73): 99.5779% and 101.189% | normalised activity, % (No DNA, -Log[inhibitor] (M) 2): 1.894% and 2.62% | normalised activity, % (No DNA, -Log[inhibitor] (M) 2.47712): 5.905% and 12.6681% | normalised activity, % (No DNA, -Log[inhibitor] (M) 3.43136): 23.7146% and 37.124% | normalised activity, % (No DNA, -Log[inhibitor] (M) 3.90849): 40.5302% and 59.4882% | normalised activity, % (No DNA, -Log[inhibitor] (M) 4.38561): 74.4281% and 76.6397% | normalised activity, % (No DNA, -Log[inhibitor] (M) 4.86273): 97.4209% and 83.0858% | normalised activity, % (No DNA, -Log[inhibitor] (M) 5.33985): 104.499% and 99.5811% | normalised activity, % (No DNA, -Log[inhibitor] (M) 5.81697): 103.384% and 101.173% | normalised activity, % (No DNA, -Log[inhibitor] (M) 6.29409): 102.321% and 96.0908% | IC50 (uncoupled 2OG decarboxylation, no DNA, read-out: IC50, No DNA, NMR): 118 µM

Reference: publication PMC11662004 (Communications Chemistry, 2024)
